Test results published in patent publication US12187717B2, “Compound and use thereof in treating autoimmune diseases” (PARENCHYMA BIOTECH INC., priority 2022, dated 2025).

Experiments:
[1] = tested on: colitis-associated colorectal cancer (CA-CRC); experiment: AOM/DSS colorectal cancer model, preventive administration; type: in vivo, C57BL/6 mice; conditions: 10 mg/kg oral, 7th to 20th days (prevention)
Procedure: AOM (Sigma Aldrich, Cat No. A5486) was diluted with physiological saline so as to be a concentration of 10 mg/kg, and then administered intraperitoneally to C57BL/6 mice (8 weeks old, female, 18±2 g) by […] for a total of 3 times at an interval of 7 days (Experiment day 0, 7, 14th). On the 7th day of the experiment, a 1.5% DSS solution prepared by dissolving 1.5% DSS in sterile distilled water was given for drinking to the mice for 7 days. Further, the 1.5% DSS solution was changed at an interval of 2 days. Sterile distilled water was provided for drinking from the 8th day of the experiment. In the compound 6 administration group according to an embodiment of the present invention, 10 mg/kg of Compound 6 per mouse was completely dissolved in an ethanol-Cremophor EL mixture corresponding to 7.5% (v/v) of the administered dose, and then, was diluted in phosphate buffered saline to prepare the final ethanol:Cremophor EL:phosphate buffered saline (0.375:0.375:9.25, v/v/v), followed by oral administration with 200 μl of the prepared solution. In order to confirm the preventive effect, Compound 6 was administered for a total of 14 times from the 7th to the 20th days of the experiment.

[2] = tested on: graft-versus-host disease; experiment: Graft-versus-host disease model (B6->BDF1); type: in vivo, BDF1 mice; conditions: 10 mg/kg oral daily, 3rd to 14th days
Procedure: The spleen of C57BL/6 mice (8 to 12 weeks old, female, 18±3 g) was excised, pulverized by adding RPMI medium, and then passed through a 40 μm cell strainer (BD Falcon), thereby obtaining a single cell suspension. The single cell suspension was centrifuged (1200 rpm, 5 minutes), and after discarding the supematant, 1 ml of ACK (ammonium chloride/potassium bicarbonate) lysis buffer (0.15 M NH4Cl, 1 mM KHCO3, 0.1 mM Na2 EDTA) was added, followed by stirring for 1 minute and then washing the same with RPMI medium. After centrifugation, the cell suspension was reacted on mouse CD90.2 microbeads (Miltenyi Biotec, Cat No. 130-121-278) at 4° C. for 20 minutes. After complementation of the reaction, the cell suspension was centrifuged, washed with 10 ml of autoMACS® Running Buffer (Miltenyi Biotec, Cat No. 130-091-221), and then resuspended with 3 ml of autoMACS® Running Buffer. Then, CD90.2^+ T cells were obtained from the cell suspension using Auto MACS pro (Miltenyi Biotec) (positive selection). […]
The graft-versus-host disease severity index was evaluated at an interval of 3 to 4 days by visual observation in a severity index system that was classified into a total of 10 points with 0 to 2 points for each item of weight reduction, hair condition, posture, activity and skin change.

[3] = pH-metric solubility and logP (SIRIUS T3); type: physicochemical
Procedure: After dissolving Compound 6 in ethanol, the solubility was measured and analyzed using a SIRIUS T3 machine.

CYP3A4 = CYP3A4 (Homo sapiens, UniProt P08684); conditions: 2 days, 10 μM
Chain of CYP3A4 (P08684 whole entry): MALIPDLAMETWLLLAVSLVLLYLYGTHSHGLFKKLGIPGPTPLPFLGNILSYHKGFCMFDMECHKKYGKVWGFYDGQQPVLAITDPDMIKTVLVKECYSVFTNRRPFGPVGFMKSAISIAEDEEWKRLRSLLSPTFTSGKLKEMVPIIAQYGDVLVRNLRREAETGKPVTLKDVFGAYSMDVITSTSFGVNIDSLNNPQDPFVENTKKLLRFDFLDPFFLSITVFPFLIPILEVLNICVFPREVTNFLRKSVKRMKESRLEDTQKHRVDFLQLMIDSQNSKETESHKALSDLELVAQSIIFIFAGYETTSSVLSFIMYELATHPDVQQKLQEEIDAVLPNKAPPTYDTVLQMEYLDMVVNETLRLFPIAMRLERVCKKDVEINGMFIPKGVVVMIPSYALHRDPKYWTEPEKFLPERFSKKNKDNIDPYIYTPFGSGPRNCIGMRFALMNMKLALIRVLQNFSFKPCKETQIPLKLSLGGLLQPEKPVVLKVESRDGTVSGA
Procedure: Live human hepatocyte cell lines (Corning, Cat No. 454551) were collected using a plating medium, seeded on a 24-well plate so that a cell density thereof was 0.4×10^6 cells/well, and cultured for 2 to 4 hours. After replacing the plating medium with a hepatocyte culture medium, the hepatocytes were cultured for 24 hours. After culturing for 24 hours, hepatocytes were treated with Compound 6 at 1, 5, 25 µM. The medium containing the compound was changed every 24 hours for 2 days. The cultured cells were recovered to prepare mRNA samples. mRNA was extracted from the recovered cells by a phenol-chloroform sedimentation method using TRIZOL reagent (Invitrogen, Cat No. 15596018). From the isolated RNA, cDNA was synthesized by reverse transcription, followed by measuring drug metabolizing enzymes CYP1A2, CYP2C9, CYP2C19, CYP2B6, and CYP3A4 through real-time PCR analysis using the Quant Studio™ 7 Flex Real-Time PCR System (Applied Biosystems, CA). Relative values of the enzyme expression levels were compared by the ΔΔct method using GAPDH as a control enzyme. Herein, one (1) fold was set using the control. Results are expressed as % of control compared to control sample.

**Q.** What does the source list for `O=C(Cc1c[nH]c2ccc(Cl)cc12)Nc1nc2ccc(N3CCOCC3)cc2s1` [Compound 6, 2-(5-chloro-1H-indol-3-yl)-N-(6-morpholinobenzo[d]thiazol-2-yl)acetamide]?
**A.** body weight ([1]; after 70 days): increase in the body weight similar to that of normal mice; number of tumors ([1]; vs control): significantly smaller; size of tumors ([1]; vs control): significantly smaller; colon tissue inflammatory pathology index [2]: significantly decreased; severity index of graft-versus-host disease ([2]; total of 10 points, solvent control 8±1): 2.2±1.2; pH-metric solubility molarity relative to Comparative Example 1 ([3]; Compound 6 vs Comparative Example 1): about 3.92 times; logP ([3]; pH-metric results, SIRIUS T3): 3.04; pH-metric solubility, Molarity ([3]; pH-metric results, SIRIUS T3): 14.3 μM; pH-metric solubility, Weight/ml ([3]; pH-metric results, SIRIUS T3): 6.104 μg/ml; CYP3A4 activity (CYP3A4): 85.7 % of Control Activity
